Active and inactive are the calls of the source. How the calls were made is not given here.
target: Bcl-2-related protein A1 (Homo sapiens) (UniProt Q16548); assay: inhibitors of Bim binding to Bfl-1, dose response, biochemical, multiplexed, bead-based flow cytometry (AID 1320); conditions: Bim peptide-Bfl-1 binding, fluorescence; on percent span (inhibition): test concentration not given here
Sequence (Q16548 whole entry, looked up): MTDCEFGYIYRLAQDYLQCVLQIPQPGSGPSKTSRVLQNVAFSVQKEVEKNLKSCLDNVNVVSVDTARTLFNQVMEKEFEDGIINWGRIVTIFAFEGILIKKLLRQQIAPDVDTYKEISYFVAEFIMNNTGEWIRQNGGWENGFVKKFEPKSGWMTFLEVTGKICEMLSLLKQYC

Structure (SMILES) | EC50
Fc1ccc(/C=C2\CCCC3=C2NC(=S)NC3c2ccc(F)cc2)cc1 (configuration not stated) | inactive
CCC(=O)N(CC)C1=C(O)c2ccccc2C(=O)C1=O | 80 nM

same assay, conditions: Bim peptide-Bfl-1 binding, fluorescence, hits give high values

Structure (SMILES) | percent span (inhibition)
CCn1cc(C=C2C(=O)c3ccccc3C2=O)c2ccccc21 | inactive
O=C(NNC(=O)C12CC3CC(CC(C3)C1)C2)c1ccco1 | inactive
CC1(C)Cc2c(ccc3ccccc23)/C(=C/C(=O)N2CCCCC2)N1 | inactive
Cc1cc(-c2csc(N)n2)c(C)n1CCc1ccccc1 | inactive
Cc1[nH]n(C(N)=S)c(=O)c1N=Nc1ccc(S(=O)(=O)N2CCCCCC2)cc1 | inactive
COc1ccccc1Oc1ccc2c(c1)C(=O)N(c1cccc3ncccc13)C2=O | inactive
NC(=O)c1c(NC(=O)C2CCCO2)sc2c1CCCC2 (configuration not stated) | inactive
O=C(O)c1cccc(NC2=C(Cl)C(=O)c3ccccc3C2=O)c1 | inactive
CN(C)C(Cc1ccccc1)C(=O)c1cccs1 (configuration not stated) | inactive
CC(C)=C1C(=O)NN(c2ccc(C)c(Cl)c2)C1=O | inactive
Cc1sc2nc(C(C)C)nc(SCC(=O)N3c4ccccc4CC3C)c2c1C (configuration not stated) | inactive
Cc1cc(N2CCN(C)CC2)nc2ccc(NC(=S)N3CCN(c4ccc(F)cc4)CC3)cc12 | inactive
CCOc1cc(S(=O)(=O)N2CCCCC2)ccc1F | inactive
Nc1ccc(N2CCN(CCCCN3C(=O)C4CCCN4C3=O)CC2)cc1 (configuration not stated) | inactive
O=C1c2ccccc2-c2onc3ccc(NCCCn4ccnc4)c1c23 | inactive
Cc1ccc(/C=C2\CCCC3=C2NC(=S)NC3c2ccc(C)cc2)cc1 (configuration not stated) | inactive
Cc1cc(C)c2nc3nc(C)cc(C)c3c(N)c2c1 | inactive
OCCN1CCN(CCCc2c3c(cc4c2CCC4)CCC3)CC1 | inactive
OCCC1CN(Cc2ccc3ncccc3c2)CCN1Cc1ccccc1 (configuration not stated) | inactive
Fc1ccccc1-n1cc(-c2ccccc2)[nH]c1=S | inactive
O=C(C1=C(Nc2ccccc2)c2ccccc2S(=O)(=O)N1)c1ccccc1 | inactive
COc1ccc(C2C(C#N)=C(C)NC3=C2S(=O)(=O)c2ccccc23)cc1 (configuration not stated) | inactive

Structure (SMILES) | percent span (inhibition)
COC(=O)CCC(=O)Nc1sc(C)c(C)c1C(N)=O | inactive
O=C(Cc1ccccc1)OCCNC(=O)c1cccnc1 | inactive
COc1ccc(N2CCN(C(CNS(=O)(=O)c3ccc4c(c3)OCCO4)c3ccco3)CC2)cc1 (configuration not stated) | inactive
CNC(=O)/C(C#N)=C/c1c(N(Cc2ccccc2)Cc2ccccc2)nc2c(C)cccn2c1=O | inactive
COc1cc(/C=N/Nc2nn3cnnc3c3ccccc23)ccc1O | inactive
O=C(CC1NCCNC1=O)Nc1cccc([N+](=O)[O-])c1 (configuration not stated) | inactive
O=c1[nH]c(SCc2nc3ccccc3c(=O)n2-c2ccccc2C(F)(F)F)nc2ccccc12 | inactive
COc1cccc2c(SCC(=O)N/N=C/c3ccccc3)cc(C)nc12 | inactive
Clc1nssc1=Nc1ccccc1 | inactive
Cc1cc(C)c2nc3nc(C)c(C)cc3c(N)c2c1 | inactive
CCOC(=O)c1nc(Nc2ccc(Nc3ccccc3)cc2)c2ccccc2n1 | inactive
CCC(=O)NC(c1ccc(C)cc1)c1cc([N+](=O)[O-])c2cccnc2c1O (configuration not stated) | inactive
CCOc1ccccc1C(=O)NC1CC2CCCC(C1)N2C1CC1 (configuration not stated) | inactive
CC1CC2=C(NC(=S)NC2c2ccccc2F)/C(=C/c2ccccc2F)C1 (configuration not stated) | inactive
COc1cc2[nH]c(=S)nc(NCCc3ccc(S(N)(=O)=O)cc3)c2cc1OC | inactive
O=C(Nc1cccc(Cl)c1)Nc1ccc(Cl)cn1 | inactive
CNCc1ccccc1Sc1cc(O)ccc1O | inactive
COc1ccc(CCNC(=O)c2cc(-c3ccccn3)nc3c(Cl)cccc23)cc1OC | inactive
COCc1cc(CN2CCCC(CNC(=O)c3ccc(F)cc3)C2)ccc1OC (configuration not stated) | inactive
CC1(C(=O)N(CC(=O)NC2CCCC2)Cc2ccco2)CC(=O)N=C2C=CC=CN21 (configuration not stated) | inactive
O=C(Cn1c(-c2ccccc2)noc1=O)N1CCC(Cc2ccccc2)CC1 | inactive
Cc1cc(-c2nnc3n2N=C(c2ccc(-c4ccccc4)cc2)CS3)n[nH]1 | inactive

Structure (SMILES) | percent span (inhibition)
CCn1c(C)nc2cc(C(=O)N/N=C/c3ccc(O)c(O)c3O)ccc21 | inactive
COc1ccc(N2CCN(CCCNC(=O)CCCn3c(=O)[nH]c4ccsc4c3=O)CC2)cc1 | inactive
O=C(N/N=C/c1cccc([N+](=O)[O-])c1)c1cccs1 | inactive
COc1ccccc1-n1c(SCC(=O)N2CCc3ccccc32)nc2c(c1=O)SCC2 | inactive
O=C(c1cnccn1)N(Cc1cccs1)C1(C(=O)NC2CCCCC2)CCCCC1 | inactive
c1ccc2c(N3CCOCC3)nc(N3CCOCC3)nc2c1 | inactive
COCCN=c1scc(-c2ccco2)n1/N=C/c1ccc(O)c(O)c1O | inactive
CCN(CC)c1ccc(NC(=O)COc2ccccc2C#N)cc1S(=O)(=O)Nc1ccccc1OC | inactive
CCN(CC)CCN(C(=O)c1ccc(N2C(=O)CCC2=O)cc1)c1nc2cc3c(cc2s1)OCCO3 | inactive
Cc1ccc(C)c(NC(=O)C(=O)NCc2ccccn2)c1 | inactive
CCCCc1ccc(NC(=S)NCc2ccc(OC)cc2)cc1 | inactive
C=CCn1c(C)cc(-c2csc(NC)n2)c1C | inactive
COc1c(F)c(F)c(C(=O)Nc2ccccc2N2CCN(C(=O)C(C)C)CC2)c(F)c1F | inactive
CNc1ccc(Br)cc(C(=O)/C=C/c2ccc(OC)cc2OC)c1=O | inactive
COc1ccc(CN(CC(=O)NC2CCCC2)C(=O)CCC(=O)Nc2cc(C)on2)cc1 | inactive
CN(CCc1ccccn1)C(=O)CCC1CCCN(C(=O)NC2CCCCC2)C1 (configuration not stated) | inactive
CCSc1nnc(NC(=O)c2c(-c3ccccc3Cl)noc2C)s1 | inactive
COc1ccc(NC(=O)c2c(F)cccc2F)cc1S(=O)(=O)Nc1ccc(Br)cc1 | inactive
Cc1nn(-c2ccc(Cl)c(Cl)c2)c(C)c1C(=O)O | inactive
CN1CCS/C1=C/C=C1/SC(=S)N(Cc2ccccc2)C1=O | inactive
COP(=O)(CC(=O)O)c1ccccc1 (configuration not stated) | inactive
COc1ccc(NC(=O)/C(Cl)=C(/Cl)S(=O)Cc2ccccc2)cn1 (configuration not stated) | inactive

Structure (SMILES) | percent span (inhibition)
CC(C(=O)Nc1cc([N+](=O)[O-])ccc1Cl)N1CCN(c2ccc(O)cc2)CC1 (configuration not stated) | inactive
CNc1ccccc(C(=O)/C=C/c2ccccc2OC)c1=O | inactive
CS(=O)(=O)NN1C(=O)c2ccccc2NC1c1cccs1 (configuration not stated) | inactive
Cn1c(=O)c2cc(S(=O)(=O)Nc3cc(C(=O)O)cc(C(=O)O)c3)ccc2n(C)c1=O | inactive
COc1ccc(C)cc1-n1c(=O)c2ccccc2c2ccccc2c1=O | inactive
COCCn1nnnc1CN(Cc1ccco1)Cc1cc2cc3c(cc2[nH]c1=O)OCO3 | inactive
N/C(Cc1ccc(Cl)c(Cl)c1)=N\OC(=O)c1cccs1 | inactive
O=C(NC1=NCCS1)NC12CC3CC(CC(C3)C1)C2 | inactive
O=C(COc1ccccc1)Nc1ccc2c(c1)Cc1cc(NC(=O)COc3ccccc3)ccc1-2 | inactive
CN1/C(=C\C(=O)Nc2ccc(Cl)cc2)C(C)(C)c2ccccc21 | inactive
CCOC(=O)c1cccc(Nc2ncnc3ccccc23)c1 | inactive
CN1CCN(c2ccccc2N)CC1 | inactive
CCc1ccc(/C=C/C(=O)c2cc(Br)ccc(=O)c2O)cc1 | inactive
COc1ccc(C2CC(=O)C3=C(C2)Nc2ccccc2NC3c2coc3ccccc3c2=O)cc1OC (configuration not stated) | inactive
COc1ccccc1-n1c(-c2ccc(Cl)cc2)c[nH]c1=S | inactive
CC1(C)CC(=O)C(C=NCCN2CCN(CCc3ccccc3)CC2)=C(O)C1 | inactive
O=C(Oc1ccc(-c2cnc3ccccc3n2)cc1)c1cccc([N+](=O)[O-])c1 | inactive
Fc1ccccc1/C=C1\CCCC2=C1NC(=S)NC2c1ccccc1F (configuration not stated) | inactive
C/C(=N\NC(=O)COc1ccc(C(C)(C)C)cc1)c1ccc2c(c1)OCCO2 | inactive
